Measurements published in patent US9957246B2, “Prodrugs of tetrahydrocannabinol, compositions comprising prodrugs of tetrahydrocannabinol and methods of using the same” (Zynerba Pharmaceuticals, Inc., priority 2007, dated 2018).
Structures can show the parent of a compound that is named as a salt.

What was measured:
[1] = Plasma stability of prodrugs (bioconversion to parent drug); assay type: in vitro ADME
Protocol: Approximately 1 mg/mL of stock solution of each prodrug was prepared in 100 μL of ethanol and 900 μL of acetonitrile. Next, 10 μL of stock was spiked into 1 mL of plasma and vortexed. The samples were kept sealed in an amber vial and samples were obtained to analyze for bioconversion to parent drug.
An approximated 1 mg/mL stock solution of each prodrug was prepared in 100 μL of ethanol and 900 μL of acetonitrile. Next, 10 μL of stock was spiked into 1 mL of plasma and vortexed. The samples were kept sealed in an amber vial and samples were obtained to analyze for bioconversion to parent drug.
Approximately 1 mg/mL of stock solution of each prodrug was prepared in 100 μL of ethanol and 900 μL of acetonitrile. Ten μL of stock was spiked into 1 mL of plasma and vortexed. The samples were kept sealed in an amber vial and samples were obtained to analyze for bioconversion to parent drug.

[2] = In vitro human skin permeation, flow-through diffusion cells; settings: analyte: THC or intact prodrug as applied
[3] = Table 7, 2.36:1.18:1 PG:ethanol:H2O donor solution
[4] = Table 9, 2.36:1.18:1 pH = 5.5 PG:ethanol:H2O donor solution
[5] = Table 10, 2.36:1.18:1 pH = 5.5 PG:ethanol:H2O donor solution
[6] = Table 17, 90:8:2 PG:H2O:IPM donor solution
[7] = Table 18, 90:8:2 PG:H2O:IPM donor solution
[8] = Table 19, 90:8:2 PG:H2O:IPM donor solution

## CCCCCc1cc(OC(=O)CN(C)C=O)c2c(c1)OC(C)(C)[C@@H]1CCC(C)=C[C@@H]21 [ALL00121, Δ^9-Tetrahydrocannabinol N-formylsarcosyl ester]
[1]; Table 11, 0.1 h
  % Prodrug at time (h): 100%
[1]; Table 11, 1 h
  % Prodrug at time (h): 50%
[1]; Table 11, 22 h
  % Prodrug at time (h): 10%
[1]; Table 11, 24 h
  % Prodrug at time (h): 14%
[1]; Table 11, 42 h
  % Prodrug at time (h): 0%
[2]; [3]
  24 h cumulative amt: 18.5 ± 5.6 nmol
  24 h skin conc: 72.3 ± 54.0 µmol/g
  Flux: 1.2 ± 0.3 nmol/cm^2/h
  Lag time: 8.3 ± 0.5 h
[2]; Table 8, gel formulation
  24 h cumulative amt: 8.8 ± 0.1 nmol
  24 h skin conc: 33.2 ± 7.2 µmol/g
  Flux: 0.38 ± 0.03 nmol/cm^2/h
  Lag time: 1.4 ± 0.0 h

## CCCCCc1cc(OC(=O)C(=O)OCCOCCOCCOCCOC)c2c(c1)OC(C)(C)[C@@H]1CCC(C)=C[C@@H]21 [ALL00122, Δ^9-Tetrahydrocannabinol 3,6,9,12-tetraoxatridecyl oxalate]
[1]; Table 11, 0.1 h
  % Prodrug at time (h): 0%
[1]; Table 11, 1 h
  % Prodrug at time (h): 0%
[1]; Table 11, 22 h
  % Prodrug at time (h): 0%
[1]; Table 11, 24 h
  % Prodrug at time (h): 0%
[1]; Table 11, 42 h
  % Prodrug at time (h): 0%
[2]; [4]
  24 h skin conc: 52.7 ± 3.2 µmol/g

## CCCCCc1cc(OC(=O)CCC(=O)O)c2c(c1)OC(C)(C)[C@@H]1CCC(C)=C[C@@H]21 [ALL00123, Δ^9-Tetrahydrocannabinol hemisuccinate]
[1]; Table 11, 0.1 h
  % Prodrug at time (h): 0%
[1]; Table 11, 1 h
  % Prodrug at time (h): 0%
[1]; Table 11, 22 h
  % Prodrug at time (h): 0%
[1]; Table 11, 24 h
  % Prodrug at time (h): 0%
[1]; Table 11, 42 h
  % Prodrug at time (h): 0%
[2]; Table 8, gel formulation
  24 h cumulative amt: 2.3 ± 1.5 nmol
  24 h skin conc: 110.4 ± 22.2 µmol/g
  Flux: 0.15 ± 0.07 nmol/cm^2/h

## CCCCCc1cc(OC(=O)NCCCCN)c2c(c1)OC(C)(C)[C@@H]1CCC(C)=C[C@@H]21 [ALL00124, Δ^9-Tetrahydrocannabinol 4-aminobutyl carbamate]
[1]; Table 11, 0.1 h
  % Prodrug at time (h): 97%
[1]; Table 11, 1 h
  % Prodrug at time (h): 97%
[1]; Table 11, 2 h
  % Prodrug at time (h): 97%
[1]; Table 11, 3 h
  % Prodrug at time (h): 96%
[1]; Table 11, 5 h
  % Prodrug at time (h): 94%
[1]; Table 11, 24 h
  % Prodrug at time (h): 71%
[2]; [4]
  24 h cumulative amt: 138.7 ± 101.2 nmol
  24 h skin conc: 17.3 ± 0.4 µmol/g
  Flux: 9.4 ± 5.9 nmol/cm^2/h
  Lag time: 9.1 ± 2.0 h
[2]; [5]
  24 h cumulative amt: 245.2 ± 54.1 nmol
  24 h skin conc: 4.3 ± 0.3 µmol/g
  Flux: 16.1 ± 0.1 nmol/cm^2/h
  Lag time: 1.4 ± 0.0 h

## CCCCCc1cc(OC(=O)OC[C@H](O)CO)c2c(c1)OC(C)(C)[C@@H]1CCC(C)=C[C@@H]21 [ALL00126, Δ^9-Tetrahydrocannabinol (R)-2,3-dihydroxypropyl carbonate]
[1]; Table 15, 0.1 h
  % Prodrug at time (h): 100%
[1]; Table 15, 1 h
  % Prodrug at time (h): 3%
[1]; Table 15, 2.5 h
  % Prodrug at time (h): 1%
[1]; Table 15, 3.5 h
  % Prodrug at time (h): 1%
[2]; [6]
  24 h cumulative amt: 69.7 ± 10.7 nmol
  24 h skin conc: 17.8 ± 4.8 µmol/g
  Flux: 5.7 ± 0.0 nmol/cm^2/h
  Lag time: 10.8 ± 2.1 h

## CCCCCc1cc(OC(=O)C(C)(CO)CO)c2c(c1)OC(C)(C)[C@@H]1CCC(C)=C[C@@H]21 [ALL00129, Δ^9-Tetrahydrocannabinol 3-hydroxy-2-(hydroxymethyl)-2-methylpropanoate]
[1]; Table 15, 0.1 h
  % Prodrug at time (h): 100%
[1]; Table 15, 1 h
  % Prodrug at time (h): 100%
[1]; Table 15, 3 h
  % Prodrug at time (h): 98%
[1]; Table 15, 24 h
  % Prodrug at time (h): 83%
[2]; [7]
  24 h cumulative amt: 74.2 ± 8.1 nmol
  24 h skin conc: 19.6 ± 12.6 µmol/g
  Flux: 4.8 ± 0.7 nmol/cm^2/h
  Lag time: 7.8 ± 1.3 h

## CCCCCc1cc(OC(=O)[C@@H](O)CO)c2c(c1)OC(C)(C)[C@@H]1CCC(C)=C[C@@H]21 [ALL00134, A9-Tetrahydrocannabinol (S)-2,3-dihydroxypropanoate]
[1]; Table 15, 0.1 h
  % Prodrug at time (h): 96%
[1]; Table 15, 0.5 h
  % Prodrug at time (h): 61%
[1]; Table 15, 2 h
  % Prodrug at time (h): 15%
[1]; Table 15, 5 h
  % Prodrug at time (h): 0.8%
[1]; Table 15, 24 h
  % Prodrug at time (h): 0%
[2]; [8]
  24 h cumulative amt: 128.6 ± 5.1 nmol
  24 h skin conc: 24.5 ± 12.3 µmol/g
  Flux: 8.0 ± 0.3 nmol/cm^2/h
  Lag time: 7.0 ± 0.1 h
